The record followed here is ChEMBL document CHEMBL1201862, “PubChem BioAssay data set” (2004).

Test systems include A498; SK-OV-3; SR; HCT-116; Hs-578T; BT-549; NCI/ADR-RES; HCT-15; SK-MEL-28; NCI-H23; COLO 205; PC-3; EKVX; HT-29; SN12C; SNB-19; DU-145; MDA-MB-231; MCF7; HCC 2998.
Common to all, as to assay: inhibition of tumour cell growth, NCI panel, 48 h

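Assay format: 96-well plates, 48-hour exposure. GI50 is the concentration that inhibits growth by half.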 The source made the active and inactive calls. Cut-off read from the data, not from the text of the source: active = GI50 up to about 1.1 µM and inactive = higher.

On to `Cc1c(Cl)nc(Nc2nc3ccccc3[nH]2)nc1Cl`, for which the GI50 with A498 was > 100 µM (inactive); in the assay with SK-OV-3 it was > 100 µM (inactive); in the assay with SR, 19.9 µM (inactive); with HCT-116 it was > 100 µM (inactive); in the assay with Hs-578T it was 27.2 µM (inactive); in the assay on BT-549 it was > 100 µM (inactive). The GI50 in the assay on NCI/ADR-RES was > 100 µM (inactive); in the assay with HCT-15, more than 100 µM; with SK-MEL-28 it was 40 µM (inactive); in the assay on NCI-H23, 92.9 µM (inactive); in the assay on COLO 205, 72.3 µM (inactive); with PC-3, > 100 µM (inactive). Besides, the GI50 in the assay with EKVX was 21.9 µM (inactive); in the assay on HT-29, 25 µM (inactive); in the assay with SN12C, 41 µM (inactive); in the assay with SNB-19 it was > 100 µM (inactive); in the assay on DU-145 it was 39.4 µM (inactive).
Regarding `CC1(C)OC2COC3([C@@H]4OC(C)(C)O[C@@H]4CO)OC(C)(C)OC3C2O1` (stereo not given in full), the GI50 in the assay on MDA-MB-231, in the assay with MCF7, in the assay with A498, in the assay on HCC 2998, with SR and in the assay with HCT-116 was > 100 µM (inactive) throughout. Also, the GI50 in the assay with BT-549 was > 100 µM (inactive); with NCI/ADR-RES it was > 100 µM (inactive); in the assay on HCT-15 it was more than 100 µM; in the assay on SK-MEL-28, > 100 µM (inactive); with NCI-H23, > 100 µM (inactive); with COLO 205 it was > 100 µM (inactive). For the same molecule, the GI50 in the assay with PC-3, in the assay with EKVX, in the assay on SN12C, in the assay with SNB-19 and in the assay on DU-145 was > 100 µM (inactive) each time.
On to `Cc1cn(C(C)OCCN2C(=O)c3ccccc3C2=O)c(=O)[nH]c1=O` (stereo not given), for which the GI50 in the assay with MDA-MB-231, in the assay with MCF7, in the assay on A498, with HCC 2998, in the assay with SR and in the assay with HCT-116 was > 100 µM (inactive) each time. Besides, the GI50 in the assay with BT-549 is > 100 µM (inactive); in the assay with NCI/ADR-RES it was > 100 µM (inactive); with HCT-15, more than 100 µM; in the assay on SK-MEL-28, > 100 µM (inactive); in the assay with NCI-H23, > 100 µM (inactive); in the assay on COLO 205, > 100 µM (inactive). The GI50 with PC-3, in the assay with EKVX, with HT-29, in the assay on SN12C, with SNB-19 and with DU-145 was > 100 µM (inactive) each time.
On to `Cc1nc2c(cc1C(=O)NN)c(=O)n(C)c(=O)n2C`, for which the GI50 in the assay with MDA-MB-231, in the assay with MCF7, in the assay with SK-OV-3, in the assay with HCC 2998, in the assay with HCT-116 and in the assay on BT-549 was > 100 µM (inactive) throughout. The GI50 was > 100 µM (inactive) in the assay with NCI/ADR-RES; more than 100 µM in the assay with HCT-15; > 100 µM (inactive) with SK-MEL-28; > 100 µM (inactive) in the assay with NCI-H23; > 100 µM (inactive) with COLO 205; > 100 µM (inactive) in the assay with PC-3. Also, the GI50 in the assay with EKVX, in the assay with HT-29, with SN12C, in the assay with SNB-19 and in the assay with DU-145 was > 100 µM (inactive) throughout.
As to `O=C1/C(=C\c2cccc(Oc3ccccc3)c2)SC(c2ccccc2)N1Cc1ccccc1` (stereo not given), the GI50 was 32.9 µM (inactive) in the assay with MDA-MB-231; 26.1 µM (inactive) in the assay on MCF7; 37.7 µM (inactive) in the assay with A498; 19.1 µM (inactive) in the assay on SK-OV-3; 30.3 µM (inactive) in the assay on HCC 2998; 23.9 µM (inactive) in the assay on SR. For the same molecule, the GI50 was 14.9 µM (inactive) in the assay on HCT-116; 29.1 µM (inactive) in the assay on Hs-578T; 25.2 µM (inactive) in the assay with BT-549; 20.4 µM (inactive) in the assay on NCI/ADR-RES; 32.8 µM with HCT-15; 29.6 µM (inactive) with SK-MEL-28. Besides, the GI50 in the assay with NCI-H23 is 22.7 µM (inactive); in the assay with COLO 205 it was 10.3 µM (inactive); in the assay with EKVX, 28 µM (inactive); in the assay with HT-29, 20.2 µM (inactive); in the assay on SN12C, 33 µM (inactive); in the assay on SNB-19, 24.7 µM (inactive). Further, the GI50 with DU-145 was 34.9 µM (inactive).
On to `NC1NCCC(=O)N1CCc1c[nH]c2ccccc12` (stereo not given), for which the GI50 in the assay on MDA-MB-231 is 13.2 µM (inactive); in the assay on MCF7, 15.5 µM (inactive); in the assay with A498, 12.7 µM (inactive); in the assay on SK-OV-3, > 100 µM (inactive); in the assay with HCC 2998, 18.5 µM (inactive); in the assay on SR, 29 µM (inactive). Further, the GI50 is 13.6 µM (inactive) with HCT-116; 23.4 µM (inactive) with Hs-578T; 24.5 µM (inactive) in the assay with NCI/ADR-RES; 19.5 µM in the assay on HCT-15; 19.3 µM (inactive) in the assay on SK-MEL-28; 18.7 µM (inactive) in the assay on NCI-H23. Besides, the GI50 was 18.3 µM (inactive) in the assay with COLO 205; 19.3 µM (inactive) in the assay with PC-3; 28.1 µM (inactive) in the assay on EKVX; 27.2 µM (inactive) in the assay with HT-29; 27.2 µM (inactive) in the assay with SN12C; 33.7 µM (inactive) in the assay on SNB-19. The GI50 with DU-145 is 23.7 µM (inactive).
For `O=C1N(c2ccccc2)N=C2c3ccncc3C3=NN(c4ccccc4)C(=O)C123` (stereo not given), the GI50 in the assay with MDA-MB-231 is > 100 µM (inactive); with MCF7, > 35.6 µM (inactive); in the assay on A498, > 100 µM (inactive); in the assay with SK-OV-3 it was > 100 µM (inactive); in the assay with HCC 2998 it was 6.68 µM (inactive); in the assay on SR it was 79.6 µM (inactive). The GI50 with HCT-116 is > 29.7 µM (inactive); in the assay on Hs-578T, > 100 µM (inactive); in the assay on BT-549, > 48.4 µM (inactive); in the assay on NCI/ADR-RES it was > 27.4 µM (inactive); with HCT-15, 13.2 µM; in the assay on SK-MEL-28, > 22 µM (inactive). For the same molecule, the GI50 in the assay with NCI-H23 was > 70 µM (inactive); with COLO 205 it was 2.12 µM (inactive); in the assay with PC-3, 2.43 µM (inactive); with EKVX, > 100 µM (inactive); in the assay on HT-29, > 39.6 µM (inactive); with SN12C it was > 100 µM (inactive). For the same molecule, the GI50 in the assay with SNB-19 was > 100 µM (inactive).
On to `CC(=O)Nc1cccc(N2C(=O)/C(=C\c3cccc(Oc4ccccc4)c3)SC2c2ccccc2)c1` (stereo not given), for which the GI50 with MDA-MB-231 is > 100 µM (inactive); in the assay with MCF7, 36.4 µM (inactive); in the assay with A498, > 100 µM (inactive); in the assay on SK-OV-3, 76 µM (inactive); with HCC 2998, > 100 µM (inactive); in the assay with SR, 17.2 µM (inactive). Also, the GI50 in the assay on HCT-116 is 27 µM (inactive); with Hs-578T it was 60 µM (inactive); in the assay with BT-549, > 100 µM (inactive); with NCI/ADR-RES it was 60.8 µM (inactive); in the assay with HCT-15, more than 100 µM; with SK-MEL-28 it was 79.1 µM (inactive). Further, the GI50 in the assay on NCI-H23 was 83.2 µM (inactive); in the assay on COLO 205, 68.7 µM (inactive); in the assay on EKVX, > 100 µM (inactive); in the assay with HT-29, 80.7 µM (inactive); in the assay with SN12C, > 100 µM (inactive); in the assay with SNB-19, > 100 µM (inactive). Also, in the assay on DU-145, the GI50 is > 100 µM (inactive).
`CC(=O)OC(COc1ccc2c(c1)[n+]([O-])nc(N)[n+]2[O-])CN1CCCCC1` (stereo not given): the GI50 in the assay with MDA-MB-231 is 5.61 µM (inactive); in the assay on MCF7, 4.71 µM (inactive); in the assay on A498, 4.36 µM (inactive); with HCC 2998 it was 8.71 µM (inactive); in the assay on SR it was 12.2 µM (inactive); with HCT-116 it was 10.3 µM (inactive). The GI50 in the assay with BT-549 was 24.5 µM (inactive); with NCI/ADR-RES, 68.5 µM (inactive); in the assay on HCT-15 it was 7.89 µM; in the assay on SK-MEL-28, 24.5 µM (inactive); with NCI-H23, 12.4 µM (inactive); in the assay with COLO 205, 4.85 µM (inactive). In addition, the GI50 in the assay on PC-3 was 1.52 µM (inactive); in the assay on HT-29, 11.1 µM (inactive); with SN12C, 7.62 µM (inactive); in the assay on SNB-19, 22.3 µM (inactive); in the assay with DU-145, 18.3 µM (inactive).
Turning to `O=S(=O)(O)c1cc(O)c2c(/N=C\c3ccccc3O)cc(S(=O)(=O)O)cc2c1`, the GI50 with MDA-MB-231, in the assay on MCF7, in the assay with A498, in the assay with SK-OV-3, with HCC 2998 and in the assay with SR was > 100 µM (inactive) throughout. The GI50 is > 100 µM (inactive) in the assay on HCT-116; > 100 µM (inactive) with BT-549; > 100 µM (inactive) in the assay with NCI/ADR-RES; more than 100 µM with HCT-15; > 100 µM (inactive) with SK-MEL-28; > 100 µM (inactive) in the assay on NCI-H23. The GI50 with COLO 205, with PC-3, in the assay with EKVX, with HT-29, with SN12C and with SNB-19 was > 100 µM (inactive) each time. Also, the GI50 in the assay on DU-145 is > 100 µM (inactive).
With `Cc1cc(S(N)(=O)=O)c(SCc2nc(N)nc(N(C)C)n2)cc1Cl`, the GI50 in the assay with MCF7, in the assay with A498, with SK-OV-3, with HCC 2998, with SR and in the assay with HCT-116 was > 10 µM (inactive) throughout. For the same molecule, the GI50 in the assay with Hs-578T was > 10 µM (inactive); in the assay with BT-549, > 10 µM (inactive); with NCI/ADR-RES, > 10 µM (inactive); in the assay on HCT-15, more than 10 µM; with SK-MEL-28 it was > 10 µM (inactive); with NCI-H23, > 10 µM (inactive). Also, the GI50 in the assay with COLO 205, with PC-3, in the assay on EKVX, with HT-29, with SN12C and with SNB-19 was > 10 µM (inactive) in each case. The GI50 in the assay on DU-145 was > 10 µM (inactive).
